“And” between values parts separate entries of the source, which are not always exact repeats. Identical values can stand only once.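 How tested: cells in 96-well plates exposed to compound for 48 hours at five concentrations. GI50 marks 50% less growth. TGI marks complete inhibition of growth.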
Legend:
Assay in all cases: NCI anticancer screen, dose series, 48 h
PC-3 prostate = tested on: PC-3 prostate
OVCAR-5 ovarian = tested on: OVCAR-5 ovarian
K-562 leukemia = tested on: K-562 leukemia
A498 renal = tested on: A498 renal
MOLT-4 leukemia = tested on: MOLT-4 leukemia

Structure (SMILES)	TGI (PC-3 prostate)	TGI (OVCAR-5 ovarian)	TGI (K-562 leukemia)	TGI (A498 renal)	TGI (MOLT-4 leukemia)	GI50 (OVCAR-5 ovarian)	GI50 (K-562 leukemia)	GI50 (A498 renal)	GI50 (MOLT-4 leukemia)
C[C@]12CCC(=O)O[C@H]1CCCCO2	> 100 µM	> 100 µM	> 100 µM	> 100 µM	> 100 µM				
CCOC(=O)c1nc2ccc(C(F)(F)F)cc2nc1NCc1cc(OC)c(OC)c(OC)c1	> 100 µM	> 100 µM		> 100 µM	> 100 µM				
Cc1ccc(SCC(CF)OC(C)n2cnc3c(=O)[nH]c(N)nc32)cc1 (stereo unspecified)	> 100 µM	> 100 µM			> 100 µM				
Cc1cc(S(=O)(=O)N=C2N(Cc3ccccc3)CCN2Cc2ccccc2)c(S)cc1Cl	> 100 µM	> 100 µM	> 100 µM	> 100 µM	> 100 µM				
O=c1cc(-c2ccc(F)cc2)[nH]c2ncc(Cl)cc12	> 100 µM	> 100 µM	32.6 µM	53.6 µM	> 85.6 µM				
O=C(O)Cc1cccc2c(=O)c3ccccc3oc12	> 100 µM		> 100 µM	> 100 µM	> 100 µM				
CCCCN1C(=O)N(c2ccc(OCC)cc2)C2N(CCCC)C1C(C)(C)C2(C)C (stereo unspecified)	> 100 µM			> 100 µM					
COc1ccc2ccccc2c1/C=C/C(=O)c1ccccc1	13.9 µM	22 µM	6.28 µM	10.9 µM	6.78 µM				
CCOC(=O)C(=Cc1[nH]c2ccccc2c1-c1c[nH]c2ccccc12)C(=O)OCC	25 µM	30.3 µM	26.6 µM	28.6 µM	> 100 µM				
C(=Nc1ccc(-c2nc3ccccc3[nH]2)cc1)c1cccs1	> 100 µM	> 100 µM	> 100 µM	> 100 µM	> 100 µM				
O=Cc1ccc2c(c1)CC1(Cc3ccccc3C1)C2	59.6 µM	> 100 µM	44.9 µM	83.7 µM	42.9 µM				
CC1=NNC(N)=N/C1=C\C(Sc1ccc(Cl)cc1)c1ccc([N+](=O)[O-])cc1 (stereo unspecified)	> 100 µM	> 100 µM	> 100 µM	> 100 µM	> 100 µM				
COc1cc(/C=C2/C[C@H]3[C@@H]4CC=C5C[C@@H](O)CC[C@]5(C)[C@H]4CC[C@]3(C)NC2=O)cc(OC)c1OC	79.4 µM	> 75.7 µM	> 100 µM	55 µM	> 100 µM				
NN/C(=N\S(=O)(=O)c1cc2ccccc2s1)Nc1ccc(Cl)cc1	62.4 µM	48.2 µM	> 100 µM	39.5 µM	68 µM				
CC(C)[Si](OC1=C(C(=O)N(C)c2cccc(Cl)c2)CCCC1)(C(C)C)C(C)C	24 µM	22.5 µM	71.3 µM	31.5 µM	> 100 µM				
CCOC(=O)N/N=C(/N)c1cccc([N+](=O)[O-])c1	> 100 µM	> 100 µM	> 100 µM	> 100 µM	> 100 µM				
O=C1/C(=N/O)Cc2c(Br)ccc(Br)c21	> 100 µM	> 100 µM	84.5 µM	> 100 µM	82.4 µM				
O=C1/C(=C/c2ccc([N+](=O)[O-])cc2)C(=O)N(c2ccccc2)C1c1ccccc1 (stereo unspecified)	> 10 µM	> 10 µM		> 10 µM	> 10 µM				
O=C1CSC(c2cccc(Oc3ccccc3)c2)N1c1ccc(Cl)cc1 (stereo unspecified)	> 100 µM	> 100 µM	69.9 µM	47.6 µM	56.1 µM				
COc1ccccc1/C=C1\SC(=S)N(/C=C2\C(=O)Oc3ccccc3C2=O)C1=O	> 100 µM	> 100 µM	> 100 µM		> 100 µM				
Cc1ccc(N=Nc2c(O)ccc3cc(S(=O)(=O)O)cc(S(=O)(=O)O)c23)cc1	> 100 µM	> 100 µM	> 100 µM	> 100 µM	> 100 µM				
CCOP(C)(=O)C(N)Cc1ccc(OC)c(OC)c1 (stereo unspecified)	> 100 µM		> 100 µM	> 100 µM	> 100 µM				
CC(=O)OCC12C(=O)C[C@@H](C)C3(CC(c4ccoc4)OC3=O)C1CCC(OC(C)=O)C21CO1 (stereo partly specified)	> 100 µM	> 100 µM	> 100 µM	> 100 µM	> 100 µM				

Structure (SMILES)	TGI (PC-3 prostate)	TGI (OVCAR-5 ovarian)	TGI (K-562 leukemia)	TGI (A498 renal)	TGI (MOLT-4 leukemia)	GI50 (OVCAR-5 ovarian)	GI50 (K-562 leukemia)	GI50 (A498 renal)	GI50 (MOLT-4 leukemia)
CCOC(=O)CNc1c(OCc2ccccc2)c(=O)c1=O	> 100 µM	> 100 µM	> 100 µM		> 100 µM				
CSc1ccc2c(cc1=O)[C@@H](NC(=O)c1ccc(N)cc1)CCc1cc(O)c(O)c(O)c1-2	> 100 µM	66.3 µM and > 100 µM	> 100 µM	> 100 µM	> 100 µM				
Oc1c(CN2CCOCC2)ccc2cccnc12	> 10 µM	> 10 µM	> 10 µM	> 10 µM	> 10 µM				
Cc1ccc2c(c1)C(C(=O)N[C@@H]1C(=O)N3[C@@H]1SC(C)(C)[C@@H]3C(=O)O)OCCC2 (stereo partly specified)	> 100 µM	> 100 µM	> 100 µM	> 100 µM	> 100 µM				
Cc1cccc(N=NC(=O)NNc2cccc(C)c2C)c1C	> 100 µM	> 100 µM	> 100 µM	92.6 µM					
CON(C)C(=O)CNC(=O)OCC1c2ccccc2-c2ccccc21	> 100 µM	> 100 µM	> 100 µM	> 100 µM	> 100 µM				
Oc1ccc(-c2nc(-c3cccnc3)c(-c3ccc(Cl)cc3)[nH]2)cc1	19.5 µM	33.5 µM	> 100 µM		18.1 µM				
COC(CNC(=O)C(C)NC(=O)CCc1ccccc1)OC (stereo unspecified)	> 100 µM	> 100 µM	> 100 µM		> 100 µM				
COC1=C(OC)C(=O)C(Cc2c(C)nc3sc(C)cn23)=C(C)C1=O	68.3 µM	40.7 µM	39 µM	> 100 µM	4.23 µM				
Cc1nc(-c2cc3cc([N+](=O)[O-])ccc3oc2=O)cs1	> 100 µM	> 100 µM	> 100 µM		> 100 µM				
COc1cc(CNCc2cc(OC)c(OC)c(OC)c2)cc(OC)c1OC	> 10 µM	> 10 µM	> 7.36 µM	> 10 µM	> 10 µM				
Cc1ccc(/C=C2\CCCc3ccccc3C2=O)cc1	> 100 µM	29.5 µM	53.7 µM		52.8 µM				
COc1cc(C(=O)N(Cc2cccnc2)C(=S)N(Cc2cccnc2)C(=O)c2cc(OC)c(OC)c(OC)c2)cc(OC)c1OC		> 100 µM	> 100 µM	52.9 µM	> 100 µM				
O=Cc1ccc(OCc2cccc(COc3ccc(/C=N\Nc4ccc([N+](=O)[O-])cc4[N+](=O)[O-])cc3)n2)cc1	> 100 µM	> 100 µM	> 100 µM	> 100 µM	80.2 µM				
CC(C)(C)OC(=O)NC(Cc1ccc(OCc2ccccc2)cn1)C(=O)N1CCCCC1 (stereo unspecified)	55.2 µM	> 100 µM	> 100 µM	> 100 µM	47.7 µM				
O=C1C(CN2CCCCC2)CCC1CN1CCCCC1 (stereo unspecified)	> 57.6 µM	47.8 µM		29.2 µM	3.79 µM				
O=C(NNC(=S)Nc1cccc(Cl)c1)c1cc(-c2ccccc2)nc2ccccc12	29.3 µM	36 µM	> 100 µM		74.6 µM				
O=C1CC(=Nc2ccc(Cl)cc2)C(c2ccccc2)N1c1ccccc1 (stereo unspecified)	> 100 µM		> 100 µM	> 100 µM	> 100 µM				
Cc1c(S(=O)(=O)/N=C(\NO)Nc2ccc(Cl)c(Cl)c2)sc2ccc(Cl)cc12	36.7 µM	38.2 µM	71.4 µM	38.2 µM	> 100 µM				
CCOC(=O)/C=C(/C(=O)OCC)n1ccc(=O)n(Cc2cn(COCCOC(C)=O)nn2)c1=O	> 100 µM	35.2 µM	> 100 µM	56.1 µM	41.3 µM				
CCN(CC)C(=S)N/N=C(/C)c1cccc(/C(C)=N\NC(=S)N(CC)CC)n1	17 µM	20.8 µM	11.6 µM	4.16 µM	5.77 µM				
CC12C(=O)CC(CC1=O)C2(C)C	> 100 µM	> 100 µM	> 100 µM		> 100 µM				
COc1ccc(C2OC[C@H]3O[C@@H](OCc4ccccc4)[C@H](O)[C@@H](O)[C@@H]3O2)cc1 (stereo partly specified)	> 100 µM	> 100 µM	> 100 µM	> 100 µM	> 100 µM				

Structure (SMILES)	TGI (PC-3 prostate)	TGI (OVCAR-5 ovarian)	TGI (K-562 leukemia)	TGI (A498 renal)	TGI (MOLT-4 leukemia)	GI50 (OVCAR-5 ovarian)	GI50 (K-562 leukemia)	GI50 (A498 renal)	GI50 (MOLT-4 leukemia)
COc1ccc(C(=C(Cl)c2ccccc2)c2ccc(OC)cc2)cc1	> 100 µM	> 100 µM	> 100 µM	> 100 µM	> 100 µM				
CC(C)=CCC/C(C)=C/C=C/C(C)=C/C=C/C(C)=C/C=C/C=C(C)/C=C/C=C(C)/C=C/[C@H]1C(C(C)(C)O)CC[C@]1(C)O (stereo partly specified)	> 100 µM	> 100 µM	63.6 µM	84.8 µM	54.9 µM				
NC(Cc1ccccc1)C(=O)N[C@H]1c2ccsc2/C(=N/O)[C@H]1O (stereo partly specified)	> 100 µM	> 100 µM	> 100 µM	> 100 µM					
COCN(CCC1=CCCCC1)C(=O)OC	> 100 µM	> 100 µM	> 100 µM	> 100 µM	> 100 µM				
O=C(N/N=C/c1ccccc1)c1c(-c2cccnc2)cnc2ccccc12	> 100 µM	> 100 µM	> 100 µM		> 100 µM				
O=C1C=C(C2=CC(=O)C(=O)c3ccccc32)c2ccccc2C1=O	37.3 µM	44.2 µM	> 100 µM	> 100 µM	15.4 µM				
CCOc1cn(C2CC(O)C(CO)O2)c(=O)[nH]c1=O (stereo unspecified)	> 100 µM	> 100 µM		> 100 µM	> 100 µM				
C=CC(CCc1ccc(C(=O)OCC)cc1)c1c(N)nc(N)[nH]c1=O (stereo unspecified)	> 100 µM		> 100 µM	> 100 µM	> 100 µM				
Cn1cc(NC(=O)c2cc(NC(=O)CN=C(N)N)cn2C)cc1C(=O)NCCC(=N)N	> 100 µM	> 100 µM	> 100 µM	> 100 µM	> 100 µM				
Cc1ccc(-c2c(C#N)c(-c3ccc(Cl)cc3)c(C#N)c(=O)n2NS(=O)(=O)c2ccc(C)cc2)cc1	45 µM	> 100 µM	> 100 µM	86.3 µM	40.6 µM				
O=C(NI1OC(=O)c2ccccc21)c1ccc(Cl)cc1	> 100 µM	> 100 µM	> 100 µM	> 100 µM					
c1ccc2c(c1)ccn2CCc1c[nH]c2ccccc12	> 10 µM	> 10 µM	> 10 µM		> 10 µM				
O=C1C=CC[C@H]2O[C@@H](COC(=O)Cc3ccccc3)C[C@H]2O1	> 100 µM	> 100 µM	> 100 µM	> 100 µM	> 100 µM				
CC1(C)NC2C(=O)c3c([nH]c4ccccc34)[C@]3(C)CCC1CC23 (stereo partly specified)	> 100 µM	> 100 µM	> 100 µM	> 100 µM	> 100 µM				
CSc1ncnc2c1ncn2C1CC(Oc2ccc(C)cc2)C(COc2ccc(C)cc2)O1 (stereo unspecified)	> 100 µM	> 100 µM		> 100 µM	> 100 µM				
CNc1ccc(C(=O)CC(O)CCC(C)C2OC(=O)CC(O)CC(=O)CC(O)CC(O)CC(O)CC(O)CC3(O)CC(O)C(C(=O)OC)C(CC(O[C@@H]4O[C@H](C)[C@@H](O)[C@H](N)[C@@H]4O)/C=C/C=C/C=C/C=C/C=C/C=C/C=C/C2C)O3)cc1 (stereo partly specified)		> 100 µM	40.2 µM	2.89 µM	6.31 µM	3.7 µM	5.05 µM	1.23 µM	2.62 µM
NC(N)=NCCC[C@H](N)C(=O)NCC(=O)N[C@@H](CC(=O)O)c1ncc(NC(=O)C(F)(F)F)o1	> 25 µM	> 25 µM	> 25 µM	> 25 µM	> 25 µM				
CC(=O)OC(/C=C/c1ccccc1)=C(OC(C)C)/C1=C(\c2ccccc2)SCCCSC1=O	> 100 µM	> 100 µM	> 100 µM	> 100 µM	> 100 µM				
C[N+](C)(C)CC1CCCCCCCCCCC1=O (stereo unspecified)	> 100 µM	> 100 µM	> 100 µM	> 100 µM	> 100 µM				
Cc1ccc([N+](=O)[O-])cc1S(=O)(=O)Nc1ccc(C2=NNC(c3ccccc3)C2)cc1 (stereo unspecified)	> 100 µM	> 100 µM	85 µM	68.9 µM	39.8 µM				
CCN(CC)C(=O)Cn1c(C)cc2ccccc21	> 100 µM	> 100 µM	> 100 µM		> 100 µM				
CN1CCC(O)(C(C)(C)C)CC1	> 100 µM	> 100 µM	> 100 µM		> 100 µM				
OCC(O)COCn1nncc1Cn1ncc2c(SCc3ccccc3)ncnc21 (stereo unspecified)	> 100 µM	> 100 µM		> 100 µM					
